Test results reported in the supplement of paper PMC13207355.

How the values were obtained:
Conditions in all cases: exposure time: 72 h
[1] = test system: E13 (patient-derived glioblastoma stem cells of classical subtype); experiment: surviving fraction (nuclei count normalised to DMSO); higher = more cells surviving (less toxic)
[2] = test system: E21 (patient-derived glioblastoma stem cells of mesenchymal subtype); experiment: as above
[3] = test system: E28 (patient-derived glioblastoma stem cells of classical subtype); experiment: as above
[4] = test system: E34 (patient-derived glioblastoma stem cells of proneural subtype); experiment: as above
[5] = test system: E57 (patient-derived glioblastoma stem cells of mesenchymal subtype); experiment: as above
[6] = test system: FT3469 (normal neural stem cell line); experiment: as above
[7] = test system: E13; experiment: phenotypic distance (Euclidean, principal components) from DMSO controls (arbitrary units); higher = stronger morphological change
[8] = test system: E21; experiment: as above
[9] = test system: E28; experiment: as above
[10] = test system: E34; experiment: as above
[11] = test system: E57; experiment: as above
[12] = test system: FT3469; experiment: as above
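Wherever phenotypic distance (Euclidean, principal components) from DMSO controls is given: cell Painting imaging in 384-well plates, CellProfiler features reduced to at least 20 principal components, Euclidean distance versus same-plate DMSO vehicle wells (0.1% v/v), median over six images per well.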
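Wherever surviving fraction (nuclei count normalised to DMSO) is given: nuclei counted by high-content imaging of Hoechst-stained cells in laminin-coated 384-well plates, relative to 0.1% DMSO vehicle wells, with staurosporine as cell-death control.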

C[C@H](NC(=O)[C@@H](O)c1cc(F)cc(F)c1)C(=O)N[C@@H]1C(=O)N(C)c2ccccc2-c2ccccc21
Conditions	phenotypic distance	surviving fraction
[1], 4.1 nM	–	1.02
[1], 12.3 nM	–	1.075
[1], 37 nM	–	1.02
[1], 111.1 nM	–	1.03
[1], 333.3 nM	–	1.08
[1], 1000 nM	–	1.07
[1], 3000 nM	–	0.995
[2], 4.1 nM	–	0.89
[2], 12.3 nM	–	0.9941
[2], 37 nM	–	0.938
[2], 111.1 nM	–	0.902
[2], 333.3 nM	–	0.872
[2], 1000 nM	–	0.883
[2], 3000 nM	–	0.898
[3], 4.1 nM	–	0.852
[3], 12.3 nM	–	0.866
[3], 37 nM	–	0.942
[3], 111.1 nM	–	0.918
[3], 333.3 nM	–	0.925
[3], 1000 nM	–	0.835
[3], 3000 nM	–	0.891
[4], 4.1 nM	–	0.841
[4], 12.3 nM	–	0.811
[4], 37 nM	–	0.801
[4], 111.1 nM	–	0.907
[4], 333.3 nM	–	0.862
[4], 1000 nM	–	0.775
[4], 3000 nM	–	0.875
[5], 4.1 nM	–	0.906
[5], 12.3 nM	–	0.947
[5], 37 nM	–	0.939
[5], 111.1 nM	–	0.922
[5], 333.3 nM	–	0.9779
[5], 1000 nM	–	0.943
[5], 3000 nM	–	0.931
[6], 4.1 nM	–	0.89
[6], 12.3 nM	–	0.882
[6], 37 nM	–	0.89
[6], 111.1 nM	–	0.906
[6], 333.3 nM	–	0.896
[6], 1000 nM	–	0.875
[6], 3000 nM	–	0.828
[7], 4.1 nM	0.77	–
[7], 12.3 nM	0.711	–
[7], 37 nM	0.622	–
[7], 111.1 nM	0.7795	–
[7], 333.3 nM	0.785	–
[7], 1000 nM	0.723	–
[7], 3000 nM	0.862	–
[8], 4.1 nM	0.769	–
[8], 12.3 nM	2.05	–
[8], 37 nM	1.5	–
[8], 111.1 nM	0.896	–
[8], 333.3 nM	3.99	–
[8], 1000 nM	1.02	–
[8], 3000 nM	1.01	–
[9], 4.1 nM	0.845	–
[9], 12.3 nM	0.88	–
[9], 37 nM	0.919	–
[9], 111.1 nM	0.756	–
[9], 333.3 nM	0.96	–
[9], 1000 nM	1.03	–
[9], 3000 nM	1.13	–
[10], 4.1 nM	1.26	–
[10], 12.3 nM	0.926	–
[10], 37 nM	1.15	–
[10], 111.1 nM	1.04	–
[10], 333.3 nM	1.01	–
[10], 1000 nM	1.24	–
[10], 3000 nM	1.49	–
[11], 4.1 nM	1.25	–
[11], 12.3 nM	1.21	–
[11], 37 nM	1.87	–
[11], 111.1 nM	1.2	–
[11], 333.3 nM	1.284	–
[11], 1000 nM	1.34	–
[11], 3000 nM	1.43	–
[12], 4.1 nM	1.01	–
[12], 12.3 nM	0.677	–
[12], 37 nM	0.997	–
[12], 111.1 nM	0.721	–
[12], 333.3 nM	1.08	–
[12], 1000 nM	0.977	–
[12], 3000 nM	0.991	–

Cc1cc(Nc2cc(CN3CCOCC3)c3nc(C)c(Cc4ccc(Cl)cc4F)n3n2)n[nH]1 [Gandotinib]
Conditions	phenotypic distance	surviving fraction
[1], 4.1 nM	–	1.02
[1], 12.3 nM	–	0.923
[1], 37 nM	–	0.933
[1], 111.1 nM	–	0.946
[1], 333.3 nM	–	0.818
[1], 1000 nM	–	0.791
[1], 3000 nM	–	0.626
[2], 4.1 nM	–	1.07
[2], 12.3 nM	–	1.02
[2], 37 nM	–	1.03
[2], 111.1 nM	–	0.918
[2], 333.3 nM	–	0.724
[2], 1000 nM	–	0.505
[2], 3000 nM	–	0.164
[3], 4.1 nM	–	1.03
[3], 12.3 nM	–	0.979
[3], 37 nM	–	1.06
[3], 111.1 nM	–	1.02
[3], 333.3 nM	–	0.865
[3], 1000 nM	–	0.673
[3], 3000 nM	–	0.335
[4], 4.1 nM	–	0.94
[4], 12.3 nM	–	0.77
[4], 37 nM	–	0.6589
[4], 111.1 nM	–	0.511
[4], 333.3 nM	–	0.44
[4], 1000 nM	–	0.4
[4], 3000 nM	–	0.316
[5], 4.1 nM	–	1.061
[5], 12.3 nM	–	0.946
[5], 37 nM	–	0.903
[5], 111.1 nM	–	0.781
[5], 333.3 nM	–	0.534
[5], 1000 nM	–	0.42
[5], 3000 nM	–	0.193
[6], 4.1 nM	–	0.931
[6], 12.3 nM	–	0.889
[6], 37 nM	–	0.969
[6], 111.1 nM	–	0.97
[6], 333.3 nM	–	0.9328
[6], 1000 nM	–	0.806
[6], 3000 nM	–	0.584
[7], 4.1 nM	0.676	–
[7], 12.3 nM	0.87	–
[7], 37 nM	0.987	–
[7], 111.1 nM	1.47	–
[7], 333.3 nM	1.57	–
[7], 1000 nM	1.9	–
[7], 3000 nM	2.7	–
[8], 4.1 nM	1.3	–
[8], 12.3 nM	0.9953	–
[8], 37 nM	1.34	–
[8], 111.1 nM	1.92	–
[8], 333.3 nM	2.89	–
[8], 1000 nM	4.83	–
[8], 3000 nM	9.25	–
[9], 4.1 nM	0.402	–
[9], 12.3 nM	0.536	–
[9], 37 nM	0.979	–
[9], 111.1 nM	1.01	–
[9], 333.3 nM	1.15	–
[9], 1000 nM	1.63	–
[9], 3000 nM	3.72	–
[10], 4.1 nM	1.52	–
[10], 12.3 nM	2.31	–
[10], 37 nM	3.63	–
[10], 111.1 nM	5.44	–
[10], 333.3 nM	7.1	–
[10], 1000 nM	7.41	–
[10], 3000 nM	7.42	–
[11], 4.1 nM	0.653	–
[11], 12.3 nM	0.688	–
[11], 37 nM	1.33	–
[11], 111.1 nM	1.76	–
[11], 333.3 nM	2.18	–
[11], 1000 nM	2.93	–
[11], 3000 nM	5.26	–
[12], 4.1 nM	0.44	–
[12], 12.3 nM	0.627	–
[12], 37 nM	0.479	–
[12], 111.1 nM	1.67	–
[12], 333.3 nM	0.785	–
[12], 1000 nM	0.863	–
[12], 3000 nM	2.05	–
